Experimental data reported in patent US10246712B2, “Genetic or pharmacological reduction of PERK enhances cortical- and hippocampus-dependent cognitive function” (Carmel-Haifa University Economic Corp. Ltd, priority 2015, dated 2019).

System: pyramidal CA1 neurons
Experiment: Whole cell patch clamp recording of intrinsic neuronal properties
Assay type: cell-based, mouse
Conditions: vs vehicle
Experimental: Mice were sacrificed by cervical dislocation and three hundred micrometer coronal brain slices were cut with a Campden-1000 Vibrotome. Slices were cut in ice-cold cutting solution containing (in mM) 110 sucrose, 60 NaCl, 3 KCl, 1.25 NaH2PO4, 28 NaHCO3, 0.5 CaCl2, 7 MgCl2, 5 glucose, and 0.6 ascorbate and recovered for 30 min at 37° C. in artificial cerebrospinal fluid (ACSF) containing (in mM) 125 NaCl, 2.5 KCl, 1.25 NaH2PO4, 25 NaHCO3, 25 D-glucose, 2 CaCl2, and 1 MgCl2, followed by additional recovery for 30 min in room-temperature ACSF. After initial recovery, slices were placed in a submerged chamber and maintained at 34° C. in ACSF (2 ml/min). All solutions were constantly carboxygenated with 95% O2+5% CO2.
Cells infected with PERK-shRNA- or scrambled sequence PERK shRNA (PERK-Scr)-containing AAV were identified by green fluorescence. Recordings were amplified by multiclamp 700B and digitized by Digidata 1440 (Molecular Devices). The recording electrode was pulled from a borosilicate glass pipette (3-5 MΩ) using an electrode puller (P-1000; Sutter Instruments) and filled with a K-gluconate-based internal solution containing (in mM) 120 K-gluconate, 20 KCl, 10 HEPES, 2 MgCl2, 4 Na2ATP, 0.5 TrisGTP, 14 phosphocreatine, osmolarity 290 mOsm, and pH 7.3. The recording glass pipettes were patched onto the soma region of pyramidal cells. Voltages for liquid junction potential (+10 mV) were not corrected online. All current-clamp recordings were low-pass filtered at 10 kHz and sampled at 50 kHz. Series resistance was compensated and only series resistance <20 MΩ was included in the data set. Pipette capacitance was ˜99% compensated. The method for measuring active intrinsic properties was based on a modified version of Kaphzan H et al., 2013. For recordings with GSK2606414, 100 nM inhibitor was applied in the pipette solution, and recordings were performed as described above.
Resting membrane potential (RMP) was measured 5 min after the seal was ruptured. The I-V (current-voltage) relationship used to calculate number of action potentials obtained by injection of 1 s pulses (−150 to +300 pA in 50 pA increments).
Input resistance (Rin) was calculated from the voltage response to a hyperpolarizing current pulse (−150 pA). For measurements of a single AP, after initial assessment of the current, which was required to induce an action potential at 15 ms from the start of the current injection with large steps (50 pA), we injected a series of brief depolarizing currents for 10 ms in steps of 10 pA increments. The first action potential that appeared on the 5 ms time point was analyzed. A curve of dV/dt was created for that trace, and the 30 V/s point in the rising slope of the action potential was considered as threshold (Kaphzan et al., 2013).
AP amplitude was measured from the equipotential point of the threshold to the spike peak, while AP duration was measured at the point of half-amplitude of the spike. The mAHP (medium after-hyperpolarization) was measured using prolonged (3 s), high-amplitude (3 nA) somatic current injections to initiate time-locked action potential trains of 50 Hz frequency and duration (10-50 Hz, 1 or 3 s) in pyramidal cells. These action potential trains generated prolonged (˜20 s) AHPs, the amplitudes and integrals of which increased with the number of action potentials in the spike train. AHP was measured from the equipotential point of the threshold to the anti-peak of the same spike (Gulledge et al., 2013).
Series resistance, input resistance, and membrane capacitance were monitored during the entire experiment. Changes in these parameters (which were monitored throughout the entire duration of the experiment) greater than 10% were criteria for exclusion of data. AU experimental analyses were performed in a blind manner; the identity of the mouse from which neurons were recorded (PERK shRNA or scrambled) was not known to the person conducting the experiments and measurements.

Cn1cc(-c2ccc3c(c2)CCN3C(=O)Cc2cccc(C(F)(F)F)c2)c2c(N)ncnc21 [GSK2606414, 7-methyl-5-(1-{[3-(trifluoromethyl)phenyl]acetyl}-2,3-dihydro-1H-indol-5-yl)-7H-pyrrolo[2,3-d]pyrimidin-4-amine]
action potential (AP) frequency (100 nM in pipette solution, acute hippocampal slices, increased current steps): increased | AP amplitude (100 nM in pipette solution): longer | AP mid width (100 nM in pipette solution): wider | AP threshold (100 nM in pipette solution): hyperpolarized | input resistance (100 nM in pipette solution): Neither resting membrane potential (RMP) nor input resistance was changed | resting membrane potential (RMP) (100 nM in pipette solution): Neither resting membrane potential (RMP) nor input resistance was changed | mAHP (100 nM, acute hippocampal slices): significantly reduced
